The values below come from patent publication US20140336073A1, “METHOD OF DETERMINATION OF CANCER CELL DRUG SENSITIVITY TOWARDS AURORA KINASE INHIBITORS” (PALACKY UNIVERSITY, OLOMOUC, priority 2011, published 2014).

Like-named read-outs stand apart in the source and are kept apart here. Bounds are passed on as bounds.

The target in one series is Bcl-w (Homo sapiens, UniProt Q92843). As to conditions: cited from earlier work.
For series [1], the system named is p53−/− ZM447439 resistant clones. Nature of the series: MTT based cell proliferation assay of ABT-263. Conditions: diploid p53−/− ZM447439 resistant clones, 96 hrs MTT. As for the experimental part:
(§1) The MTT assay was performed in three independent replicates (n=3).
(§2) This method is performed based on the principle that viable cells can reduce yellow colored MTT (3-(4,5-dimethylthiazol-2-yl)-2,5-diphenyltetrazolium bromide) salt to purple colored formazan. The intensity of the purple colored produced is directly proportional to number of viable cells, which can be measured […]. To determine the half inhibitory concentration (IC50) of any medicinal agent MTT assay is very reliable and well accepted. […] The assay was carried out in 2 technical replicates for each concentration and in 3 biological replicates. Alongside blank and controls were included and incubated for 96 hrs. At the end of the assay time point 10 μl of MTT/well (Sigma) (10 mg/ml) was added and incubated until the appearance of violet formazan crystals. The formazan was dissolved with 100 μl/well 10% aqueous SDS (pH: 5.5) by incubating the plates at 37° C. overnight. The optical density was measured at 540 nm using the Labsystem IMS reader and the […] values were determined using Chemorezist software.

Series [2] concerns HCT116 p53−/−: CYC116 resistant clones. In words: MTT based cell proliferation assay of ABT-263. Conditions: polyploid clones, 96 hrs MTT. On the procedure:
as §1, §2

In series [3] the test system is p53+/+ ZM447439 resistant clones. In words: MTT based cell proliferation assay of ABT-263. Conditions: diploid p53+/+ ZM447439 resistant clones, 96 hrs MTT. As for the experimental part:
as §1, §2

A further series deals with HCT116 p53−/− parent. In words: Cell proliferation (MTT) IC50, cross-resistance profile. In kind it is cell-based. As to conditions: Homo sapiens, HCT-116.
For another series, the system named is HCT116 p53+/+ parent. In words: cells. As to conditions: for IC50: Homo sapiens. On the procedure:
as §2

In series [4] the test system is R2.3 (HCT116 p53−/− CYC116 resistant clone). Nature of the series: Cell proliferation (MTT) IC50, cross-resistance profile. In kind it is cell-based. As to conditions: for IC50: Homo sapiens, HCT-116, clone R2.3; for fold increase of IC50 vs parent: clone R2.3 vs HCT116 p53−/− parent. On the procedure:
(§3) Colonies were isolated and bulked up for further studies. […] [1]
as §2

Series [5] relates to R1.1 (HCT116 p53+/+ CYC116 resistant clone). The series is described as above. Conditions: for IC50: Homo sapiens, HCT-116, clone R1.1; for fold increase of IC50 vs parent: clone R1.1 vs HCT116 p53+/+ parent. In kind it is cell-based. As for the experimental part:
as §3, §2

Series [6] concerns R4.2 (HCT116 p53−/− ZM447439 resistant clone). Described as above. In kind it is cell-based. Conditions: for IC50: Homo sapiens, HCT-116, clone R4.2; for fold increase of IC50 vs parent: clone R4.2 vs HCT116 p53−/− parent. As for the experimental part:
as §3, §2

Series [7] has as its system R3.1 (HCT116 p53+/+ ZM447439 resistant clone). Described as above. In kind it is cell-based. As to conditions: for IC50: Homo sapiens, HCT-116, clone R3.1; for fold increase of IC50 vs parent: clone R3.1 vs HCT116 p53+/+ parent. On the procedure:
as §3, §2

Series [8] has as its system R1.3 (HCT116 p53+/+ CYC116 resistant clone). Described as above. Conditions: for IC50: Homo sapiens, HCT-116, clone R1.3; for fold increase of IC50 vs parent: clone R1.3 vs HCT116 p53+/+ parent. In kind it is cell-based. On the procedure: as §3, §2
The subject of series [9] is R4.3 (HCT116 p53−/− ZM447439 resistant clone). The series is described as above. In kind it is cell-based. As to conditions: for IC50: Homo sapiens, HCT-116, clone R4.3; for fold increase of IC50 vs parent: clone R4.3 vs HCT116 p53−/− parent. As for the experimental part: as §3, §2
In series [10] the test system is R3.3 (HCT116 p53+/+ ZM447439 resistant clone). The description is as above. In kind it is cell-based. As to conditions: for IC50: Homo sapiens, HCT-116, clone R3.3; for fold increase of IC50 vs parent: clone R3.3 vs HCT116 p53+/+ parent. On the procedure:
as §3, §2

The test system of series [11] is R4.1 (HCT116 p53−/− ZM447439 resistant clone). The description is as above. In kind it is cell-based. As to conditions: for IC50: Homo sapiens, HCT-116, clone R4.1; for fold increase of IC50 vs parent: clone R4.1 vs HCT116 p53−/− parent. On the procedure:
as §3, §2

Series [12] relates to R3.2 (HCT116 p53+/+ ZM447439 resistant clone). Described as above. In kind it is cell-based. As to conditions: for IC50: Homo sapiens, HCT-116, clone R3.2; for fold increase of IC50 vs parent: clone R3.2 vs HCT116 p53+/+ parent. On the procedure: as §3, §2
Series [13] concerns R2.2 (HCT116 p53−/− CYC116 resistant clone). The description is as above. In kind it is cell-based. Conditions: for IC50: Homo sapiens, HCT-116, clone R2.2; for fold increase of IC50 vs parent: clone R2.2 vs HCT116 p53−/− parent. As for the experimental part:
as §3, §2

In series [14] the test system is R2.1 (HCT116 p53−/− CYC116 resistant clone). The description is as above. In kind it is cell-based. Conditions: for IC50: Homo sapiens, HCT-116, clone R2.1; for fold increase of IC50 vs parent: clone R2.1 vs HCT116 p53−/− parent. As for the experimental part:
as §3, §2

The subject of series [15] is R1.2 (HCT116 p53+/+ CYC116 resistant clone). Described as above. As to conditions: for IC50: Homo sapiens, HCT-116, clone R1.2; for fold increase of IC50 vs parent: clone R1.2 vs HCT116 p53+/+ parent. In kind it is cell-based. On the procedure:
as §3, §2

A further series deals with VEGFR2 (Homo sapiens, UniProt P35968). Conditions: cited from earlier work.
The subject of the next series is primary tumor samples. In words: 96-h MTT cell proliferation assay on primary tumor biopsies. As to conditions: Homo sapiens. In kind it is cell-based. (In general: Tetrazolium assays rely on reduction of a dye to a coloured formazan, in cell work by metabolically active cells.)
For series [16], the system named is one HCT116 p53+/+: CYC116 resistant clone. Nature of the series: MTT assay of CYC116 with or without Bcl-xL siRNA knockdown. In kind it is cell-based. As to conditions: Homo sapiens, HCT-116. As for the experimental part:
as §2

A further series has as its target Flt-3 (Homo sapiens, UniProt P36888). Conditions: cited from earlier work.
The next series relates to CYP1A1. In words: CYP1A1 expression after CYC116 treatment for 48 h. In kind it is cell-based. Conditions: HCT116 and HCT116 p53−/− treated with CYC116 for 48 h. From the text: CYP1A1 is involved in the metabolism of polycyclic aromatic hydrocarbons (PAH). In tobacco smokers CYP1A1 transforms PAH into procarcinogens. CYP1A1 expression was reported in pulmonary cancers and also altered expression in many lung tumors (McLemore T. L. et al., Journal of the National Cancer Institute 1990; 82, 1333-39).

Sequence of Flt-3 (P36888 27-993): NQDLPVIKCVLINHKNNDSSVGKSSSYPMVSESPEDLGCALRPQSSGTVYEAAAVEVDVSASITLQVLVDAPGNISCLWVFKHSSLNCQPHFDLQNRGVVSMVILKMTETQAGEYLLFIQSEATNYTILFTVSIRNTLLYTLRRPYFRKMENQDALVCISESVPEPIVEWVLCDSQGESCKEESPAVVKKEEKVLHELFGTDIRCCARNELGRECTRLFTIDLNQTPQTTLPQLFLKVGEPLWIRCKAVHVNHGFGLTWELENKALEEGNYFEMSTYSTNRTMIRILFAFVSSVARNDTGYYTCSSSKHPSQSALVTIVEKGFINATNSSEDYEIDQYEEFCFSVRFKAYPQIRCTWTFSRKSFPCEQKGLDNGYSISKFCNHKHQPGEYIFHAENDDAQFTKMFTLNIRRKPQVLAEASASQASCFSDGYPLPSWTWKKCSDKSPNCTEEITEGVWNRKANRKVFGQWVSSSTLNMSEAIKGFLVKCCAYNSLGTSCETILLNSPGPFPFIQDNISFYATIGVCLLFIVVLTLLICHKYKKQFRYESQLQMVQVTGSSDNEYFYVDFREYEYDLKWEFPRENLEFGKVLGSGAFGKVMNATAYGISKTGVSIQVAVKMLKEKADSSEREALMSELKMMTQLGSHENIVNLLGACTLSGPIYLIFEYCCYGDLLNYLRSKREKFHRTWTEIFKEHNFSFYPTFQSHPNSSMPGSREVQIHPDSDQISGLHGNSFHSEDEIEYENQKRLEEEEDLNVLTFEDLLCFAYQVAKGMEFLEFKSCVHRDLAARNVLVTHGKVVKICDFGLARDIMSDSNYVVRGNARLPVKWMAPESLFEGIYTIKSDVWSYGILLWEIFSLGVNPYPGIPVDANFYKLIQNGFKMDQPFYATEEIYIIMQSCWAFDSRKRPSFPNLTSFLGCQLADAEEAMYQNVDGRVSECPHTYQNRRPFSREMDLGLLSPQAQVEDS
Sequence of Bcl-w (Q92843 whole entry): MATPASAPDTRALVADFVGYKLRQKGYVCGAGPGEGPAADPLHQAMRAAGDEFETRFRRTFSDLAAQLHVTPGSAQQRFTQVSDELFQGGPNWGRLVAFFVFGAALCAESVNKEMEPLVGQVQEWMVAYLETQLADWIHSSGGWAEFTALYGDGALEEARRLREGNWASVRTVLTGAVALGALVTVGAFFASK
Sequence of VEGFR2 (P35968 20-1356): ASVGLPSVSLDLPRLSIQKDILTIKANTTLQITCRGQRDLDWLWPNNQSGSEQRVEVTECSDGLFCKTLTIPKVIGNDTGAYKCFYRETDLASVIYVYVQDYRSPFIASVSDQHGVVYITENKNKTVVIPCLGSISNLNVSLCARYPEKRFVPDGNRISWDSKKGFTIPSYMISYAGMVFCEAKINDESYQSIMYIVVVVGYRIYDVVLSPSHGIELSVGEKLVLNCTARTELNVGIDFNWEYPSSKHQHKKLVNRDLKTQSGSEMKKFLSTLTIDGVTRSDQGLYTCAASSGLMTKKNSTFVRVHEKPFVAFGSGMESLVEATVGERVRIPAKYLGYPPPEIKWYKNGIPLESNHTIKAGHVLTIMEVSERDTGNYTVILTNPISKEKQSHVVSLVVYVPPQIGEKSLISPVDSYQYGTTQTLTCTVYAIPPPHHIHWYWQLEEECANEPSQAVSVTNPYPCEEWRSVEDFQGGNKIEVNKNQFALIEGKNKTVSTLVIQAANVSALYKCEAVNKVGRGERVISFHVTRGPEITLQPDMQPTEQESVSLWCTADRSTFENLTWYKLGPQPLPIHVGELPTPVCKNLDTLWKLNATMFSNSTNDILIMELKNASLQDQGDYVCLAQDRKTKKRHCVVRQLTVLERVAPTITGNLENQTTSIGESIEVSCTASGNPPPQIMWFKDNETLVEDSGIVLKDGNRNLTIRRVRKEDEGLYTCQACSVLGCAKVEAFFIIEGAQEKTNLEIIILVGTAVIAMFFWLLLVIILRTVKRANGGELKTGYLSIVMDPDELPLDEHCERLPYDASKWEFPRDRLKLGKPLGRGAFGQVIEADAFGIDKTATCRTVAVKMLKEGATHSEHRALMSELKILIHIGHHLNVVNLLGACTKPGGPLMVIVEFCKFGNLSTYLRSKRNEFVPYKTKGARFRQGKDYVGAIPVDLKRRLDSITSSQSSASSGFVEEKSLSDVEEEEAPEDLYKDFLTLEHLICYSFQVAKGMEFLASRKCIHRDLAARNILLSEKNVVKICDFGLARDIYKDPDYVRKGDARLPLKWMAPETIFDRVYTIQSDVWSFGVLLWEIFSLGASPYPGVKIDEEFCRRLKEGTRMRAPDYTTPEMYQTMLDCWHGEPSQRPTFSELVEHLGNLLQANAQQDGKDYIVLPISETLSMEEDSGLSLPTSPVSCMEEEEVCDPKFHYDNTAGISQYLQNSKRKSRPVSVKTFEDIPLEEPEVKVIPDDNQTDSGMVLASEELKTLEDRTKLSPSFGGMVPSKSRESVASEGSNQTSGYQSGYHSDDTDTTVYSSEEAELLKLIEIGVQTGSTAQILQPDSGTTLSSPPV
Experimental for HCT116 p53−/− parent: This method is performed based on the principle that viable cells can reduce yellow colored MTT (3-(4,5-dimethylthiazol-2-yl)-2,5-diphenyltetrazolium bromide) salt to purple colored formazan. The intensity of the purple colored produced is directly proportional to number of viable cells, which can be measured calorimetrically. […] The assay was carried out in 2 technical replicates for each concentration and in 3 biological replicates. Alongside blank and controls were included and incubated for 96 hrs. At the end of the assay time point 10 μl of MTT/well (Sigma) (10 mg/ml) was added and incubated until the appearance of violet formazan crystals. The formazan was dissolved with 100 μl/well 10% aqueous SDS (pH: 5.5) by incubating the plates at 37° C. overnight. The optical density was measured at 540 nm using the Labsystem IMS reader and the 1050 values were determined using Chemorezist software.

For the compound `CC1(C)CCC(c2ccc(Cl)cc2)=C(CN2CCN(c3ccc(C(=O)NS(=O)(=O)c4ccc(N[C@H](CCN5CCOCC5)CSc5ccccc5)c(S(=O)(=O)C(F)(F)F)c4)cc3)CC2)C1` [ABT-263, (R)4-(4-((4′-chloro-4,4-dimethyl-3,4,5,6-tetrahydro[1,1′-biphenyl]-2-yl)methyl)piperazin-1-yl)-N-((4-((4-morpholino-1-(phenylthio)butan-2-yl)amino)-3-((trifluoromethyl)sulfonyl)phenyl)sulfonyl)benzamide], on Bcl-w, the Ki was below 1 nM. The “response to ABT-263” value in series [1] and in series [3] was “resistant” each time. In addition, the “response to ABT-263 compared to parent HCT116 p53−/− cells” value in series [2] is “significant cross-resistance”.
For the compound `CCN(CCCOc1ccc2c(Nc3cc(CC(=O)Nc4cccc(F)c4)n[nH]3)ncnc2c1)CCOP(=O)(O)O` [AZD1152, 2-[ethyl-[3-[4-[[5-[2-(3-fluoroanilino)-2-oxoethyl]-1Hpyrazo[3 yl]amino]quinazolin7-yl]oxypropyl]amino]ethyldihydrogen phosphate], the 50% inhibitory concentration (IC50) in the series on HCT116 p53−/− parent was above 50000 nM; with HCT116 p53+/+ parent (HCT-116, read-out: mean IC50), 10 nM; in series [4] it was above 50000 nM; in series [5], 17000 nM; in series [6] it was above 50000 nM; in series [7], 36000 nM. Also, the IC50 in series [8] was 11000 nM; in series [9], above 50000 nM; in [10], 70 nM; in series [11] it was above 50000 nM; in series [12] it was 8000 nM; in series [13], above 50000 nM. In addition, the results for the IC50 in series [14] and in series [15] were above 50000 nM and 18000 nM, respectively. The “fold increase of IC50 vs parent” value is on record as 1700 fold in series [5]; 3600 fold in series [7]; 1100 fold in series [8]; 7 fold in series [10]; 800 fold in series [12]; 1800 fold in series [15].
For the compound `Cc1nc(N)sc1-c1ccnc(Nc2ccc(N3CCOCC3)cc2)n1` [CYC116, 4-methyl-5-(2-(4-morpholinophenylamino)pyrimidin-4-yl)thiazol-2-amine], the “inhibition of VEGFR2” value at VEGFR2 is reported as “inhibits”. Besides, the IC50 is at most 4420 nM in the series on primary tumor samples (13 sensitive primary tumor samples); at most 95000 nM in the series on primary tumor samples (14 resistant primary tumor samples); 340 nM in the series on HCT116 p53+/+ parent (HCT-116, read-out: IC50 value); 6000 nM in series [16] (read-out: IC50 value); 900 nM in series [16] (read-out: IC50 value after knockdown of Bcl-xL). Further, the “sensitization towards CYC116 by knockdown of Bcl-xL” value in the series on HCT116 p53+/+ parent (Bcl-xL siRNA knockdown in HCT116 parent cell line (low Bcl-xL expression)) was “no sensitization effect”. Besides, the “inhibition of Flt-3” value at Flt-3 is reported as “inhibits”. The “up-regulation of CYP1A1” value in the series on CYP1A1 is recorded as “not detected”.
Turning to `Cc1cc(Nc2cc(N3CCN(C)CC3)nc(Sc3ccc(NC(=O)C4CC4)cc3)n2)n[nH]1` [VX-680, N-[4-[4-[4-methylpiperazin-1-yl)-6-[(5-methyl-1H-pyrazol-3-yl)amino]pyrimidin-2-yl]sulfanylphenyl]cyclopropanecarboxamide], the IC50 in the series on HCT116 p53−/− parent worked out at 100 nM; in the series on HCT116 p53+/+ parent (HCT-116, read-out: mean IC50) it was 30 nM; in [4] it was 2400 nM; in series [5], 1900 nM; in series [6], 1500 nM; in [7], 2600 nM. In addition, the half-maximal inhibitory concentration (IC50) in series [8] came to 1000 nM; in [9], 3000 nM; in series [10], 90 nM; in series [11] it was 800 nM; in [12] it was 700 nM; in [13], 2000 nM. In addition, the 50% inhibitory concentration (IC50) in [14] is 4000 nM; in series [15] it was 2000 nM. Also, the “fold increase of IC50 vs parent” value in series [4] was determined as 24 fold; in [5] it was 63 fold; in series [6], 15 fold; in [7], 87 fold; in [8], 33 fold; in [9], 13 fold. The “fold increase of IC50 vs parent” value stood at 3 fold in series [10]; 8 fold in series [11]; 23 fold in [12]; 20 fold in series [13]; 40 fold in [14]; 67 fold in [15].
Take `O=C(O)c1ccc(Nc2ncc3c(n2)-c2ccc(Cl)cc2C(c2c(F)cccc2F)=NC3)cc1` [MLN8054, 4-[[9-chloro-7-(2,6-difluorophenyl)-5H-pyrimido[5,4-d][2]benzazepin-2-yl]amino]benzoic acid]: the 50% inhibitory concentration (IC50) stood at 170 nM with HCT116 p53−/− parent; 190 nM with HCT116 p53+/+ parent (HCT-116, read-out: mean IC50); 18000 nM in series [4]; 31000 nM in series [5]; 18600 nM in [6]; 2000 nM in series [7]. Moreover, the IC50 in series [8] came to 16000 nM; in series [9], 39000 nM; in [10] it was 400 nM; in [11], 22000 nM; in series [12] it was 2000 nM; in series [13], 3000 nM. The IC50 in series [14] came out at 30000 nM; in [15], 15000 nM. The “fold increase of IC50 vs parent” value is reported as 106 fold in series [4]; 163 fold in [5]; 109 fold in [6]; 10 fold in [7]; 84 fold in series [8]; 229 fold in series [9]. The “fold increase of IC50 vs parent” value amounted to 2 fold in series [10]; 129 fold in [11]; 10 fold in [12]; 18 fold in series [13]; 176 fold in [14]; 79 fold in series [15].

As a reminder, the Ki is the dissociation constant of the complex between target and ligand, obtained from inhibition or displacement. By IC50 is commonly meant the concentration needed to halve the response being measured.
